{"source": "patent US9814727B2", "about": "“Piperazine phenothiazine derivatives for treating spasticity” (UNIVERSITE D'AIX-MARSEILLE, priority 2014, dated 2017)", "key": {"lumbar motoneurons (MNs)": {"system": "lumbar motoneurons (MNs)", "assay": "Intracellular recordings of lumbar motoneurons in the in vitro spinal cord preparation (EIPSP)", "assay_type": "cell-based, rat", "conditions": "10 μM", "description": "Spinal cords isolated from neonatal rats on post natal day 4 or 5 were dissected together with spinal roots. Briefly, after decapitation and evisceration, the spinal cord was exposed by dorsal laminectomy and acute removal of the dura in a cold artificial cerebrospinal fluid (ACSF; containing (in mM): 130 NaCl, 4 KCl, 3.75 CaCl2, 1.3 MgSO4, 0.58 NaH2PO4, 25 NaHCO3 and 10 glucose (all compounds were from Sigma); oxygenated with 95% O2/5% CO2, pH=7.4). The cord, from sacral segments up to T8, was then removed from the vertebral column together with peripheral roots. The preparation was then transferred to the recording chamber where it was pinned down, ventral side up, in sylgard (Dow-Corning; USA)-covered recording chamber, and continuously perfused with the ACSF solution. After removing the pia, we recorded lumbar motoneurons (MNs) intracellularly using glass microelectrodes filled with 2 M K-acetate (70 to 100-MΩ resistance). We recorded intracellular potentials in the discontinuous current-clamp (DCC) mode (Axoclamp 2B amplifier; Digidata 1200 interface; pClamp9 software; Axon Instruments, Sunnyvale, Calif., USA). We used glass suction electrode to stimulate the ipsilateral ventral funiculus 2 to 3 segments rostral to the recorded one. Such stimulations induced GABAA- and Gly-mediated Inhibitory Postsynaptic Potentials (IPSPs) in the presence of DL-2-amino-5-phosphonovaleric acid (DL-APV, 50 μM) and 6-cyano-7-nitroquinoxaline-2,3-dione (CNQX, 10 μM) (Bos et al., 2013; Boulenguez et al., 2010; Jean-Xavier et al., 2006). We recorded IPSPs at various holding potentials (500-ms-long current pulses) and collected at least 20 values for each MN. We measured and plotted amplitudes of IPSPs against holding potentials and obtained EIPSP from the regression line.\nIn the in vitro spinal cord preparation, isolated from neonatal rat, a way to investigate KCC2 function is provided by recording motoneurons (MNs) intracellularly and measuring the chloride equilibrium potential that is given by the reversal potential of inhibitory synaptic potentials (EIPSP). The more hyperpolarized the value of EIPSP, the lower the intracellular concentration of chloride ions and, as a result, the stronger the KCC2 function. The inventors have examined the effect of 10 μM Prochlorperazine (2) on EIPSP of lumbar MNs in P4-6 rats (FIG. 3). It hyperpolarized EIPSP within 5-10 min and measurements were done 20-25 min after the onset of Prochlorperazine (2) application."}, "[1]": {"system": "Hoffmann reflex (H-reflex)", "assay": "Assessment of spasticity following spinal cord injury (H reflex)", "assay_type": "in vivo, rat", "conditions": "10 μg/kg i.v.", "protocol": "Thoracic spinal section in rats was used as a model of SCI. Adult female Wistar Rats (225/250 g Charles River) were anaesthetized intraperitoneally with 50 mg/kg ketamine (Imalgen®, Merial, Duluth, Ga., USA) and 0.25 mg/kg Medetomidine (Domitor®, Janssen Pharmaceutica, Beerse, Belgium). The antibiotic Amoxycyline (Duphamox LA®, Pfizer, 150 mg/kg) was injected subcutaneously before the surgery. The skin was cut longitudinally over T8-T10 vertebra and a local anesthetic (2% Procaine hydrochloride, Pharmy H, Saint-Germain-en-Laye, France) was injected intramuscularly before cuting the paravertebral muscles. A laminectomy was performed at vertebral segment T9. The spinal cord was transected with microscissors at the level of the T8 spinal segment. Finally, paravertebral muscles and skin were sutured and rats were treated with buprenorphine for analgesia (1 injection before awakening from anaesthesia and 4 more injections over the next 48 h period). […]\nAt day 29 post lesion, the H reflex in the rats under ketamine anesthesia (100 mg/kg, i.p.) were measured using a pair of stainless steel needle electrodes transcutaneously inserted into the vicinity of the tibial nerve stimulation. […]\nThe H reflex was measured three times at frequencies of 0.2 Hz 1 Hz, 2 Hz and 5 Hz to have their baseline values. […] The H reflex was measured each 20 minutes, five times at frequencies of 0.2 Hz 1 Hz, 2 Hz and 5 Hz"}, "paw withdrawal threshold": {"system": "paw withdrawal threshold", "assay": "Von Frey test following spinal cord injury (mechanical hyperalgesia)", "assay_type": "in vivo, rat", "conditions": "for effect on mechanical hyperalgesia (paw withdrawal threshold): 21 days after injury", "protocol": "Thoracic spinal unilateral hemisection in rats was used as a model of SCI. Adult female Wistar Rats (Charles River) were anaesthetized intraperitoneally with 50 mg/kg ketamine (Imalgen®, Merial, Duluth, Ga., USA) and 0.25 mg/kg Medetomidine (Domitor®, Janssen Pharmaceutica, Beerse, Belgium). The antibiotic Amoxycyline (Duphamox LA®, Pfizer, 150 mg/kg) was injected subcutaneously before the surgery. The skin was cut longitudinally over T8-T10 vertebra and a local anesthetic (2% Procaine hydrochloride, Pharmy H, Saint-Germain-en-Laye, France) was injected intramuscularly before cuting the paravertebral muscles. A laminectomy was performed at vertebral segment T9. The spinal cord was hemisected on the left side with microscissors at the level of the T8 spinal segment. Finally, paravertebral muscles and skin were sutured and rats were treated with buprenorphine for analgesia (1 injection before awakening from anaesthesia and 2 more injections over the next 24 h period). Aspirin was diluted in their water bottles for 3 days (aspegic, 200 mg in 150 ml). The rats weight, temperature and water intake were checked and their bladder was emptied manually twice a day until recovery of autonomy.\nAt day 21 post lesion, the rats were tested once with Von Frey hair and plantar test in order to have their baseline values. […] Then the effects of the drug was measured alternatively on mechanical and thermal hyperalgesia every 15 min, that is at […] after injection, respectively.\nThe plantar surface of the left, then right hind paws were probed using von Frey monofilaments £Bioseb, Paris, France) which apply different calibrated forces when they bent. The test started by applying a Von Frey hair of 8 g for 3 sec, and the 50% withdrawal thresholds of each hindlimb in response to tactile stimulation were measured using the up and down method (Chaplan et al., 1994)."}}}
{"smiles": "CN1CCN(CCCN2c3ccccc3Sc3ccc(Cl)cc32)CC1", "note": "[compound 2, 2-chloro-10-[3-(4-methyl-1-piperazinyl)propyl]-10H-phenothiazine]", "values": [{"measurement": "change of driving force (EIPSP-Vrest)", "setting": "lumbar motoneurons (MNs); 20-25 min, n=6", "result": "−3.5", "unit": "mV"}, {"measurement": "effect on resting membrane potential (Vrest)", "setting": "lumbar motoneurons (MNs); 20-25 min, n=6", "result": "no significant impact"}, {"measurement": "hyperpolarizing shift of EIPSP compared to control", "setting": "lumbar motoneurons (MNs); 20-25 min after onset of application, P4-6 rats, n=6", "result": "−3.3", "unit": "mV"}, {"measurement": "time to hyperpolarization of EIPSP", "setting": "lumbar motoneurons (MNs); P4-6 rats", "result": "5 to 10", "unit": "min"}, {"measurement": "decrease of the H reflex", "setting": "[1]; 80 min after injection, 1, 2 and 5 Hz, adult rats after SCI", "result": "~30", "unit": "%"}, {"measurement": "effect on spasticity after spinal cord injury", "setting": "[1]; 80 minutes, adult rats 4 weeks after SCI", "result": "reduces spasticity"}, {"measurement": "time after injection at which effects were significant", "setting": "paw withdrawal threshold; i.p. or i.v., Von Frey test", "result": 40, "unit": "min"}, {"measurement": "effect on mechanical hyperalgesia (paw withdrawal threshold)", "setting": "paw withdrawal threshold; intraperitoneally 2 mg/kg", "result": "temporarily reduces mechanical hyperalgesia"}, {"measurement": "effect on mechanical hyperalgesia (paw withdrawal threshold)", "setting": "paw withdrawal threshold; intravenously 50 ng/kg", "result": "temporarily reduces mechanical hyperalgesia"}]}
